Columns and labels:
[1] = pig, in vivo
in vivo = conditions: pig
[2] = human, in vivo, sc; cited from earlier work

enfuvirtide
difference in TEWL between treatment site and control site [1]: not statistically different | bioavailability (in vivo): ~30% | patients experiencing injection site reaction [2]: up to 98%

Reference: US20160303360A1, “Ultrasonic Transducer and Transdermal Delivery System” (Actuated Medical, Inc., priority 2015, published 2016)
